Patent EP0545103A1, “Insecticidal, acaricidal and molluscicidal 1-(substituted) thioalkylpyrroles” (priority 1991, dated 1993)

Each compound was assayed on Spodoptera eridania, 3rd instar larvae, southern armyworm (assay: Southern armyworm 3rd instar test, dipped limabean leaf). Details: 10 ppm; rating at 3 days.
Assay type: in vivo
Design: key: 0: no effect; 10-25% kill; 26-35% kill; 36-45% kill; 46-55% kill; 56-65% kill; 66-75% kill; 76-85% kill; 86-99% kill; 9: 100% kill
Method in brief: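 Ten 3rd instar larvae fed on limabean leaves that had been dipped for 3 s in test solution and dried. Test solutions were diluted in water from a 10,000 ppm stock in 35% acetone/water. Ratings at days 3 and 5 covered death, feeding reduction and abnormal molting.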

SMILES | ARMYWORM Day 3
CC1(C)CN=C(SCn2c(-c3ccc(Cl)cc3)c(C#N)c(Br)c2C(F)(F)F)NC1 [Example 10] | 0
CCOC(=S)SCn1c(-c2ccc(Cl)c(Cl)c2)c(Br)c(C(F)(F)F)c1C(F)(F)F [Example 35] | 9 (100% kill)
CCOC(=S)SCn1c(-c2ccc(Cl)cc2)c(C#N)c(Br)c1C(F)(F)F [Example 29] | 9 (100% kill)
CN=C(NC)SCn1c(Cl)c(Cl)c(C#N)c1-c1ccc(Cl)c(Cl)c1 [Example 15] | 9 (100% kill)

Same assay, conditions: 10 ppm; rating at 5 days

SMILES | ARMYWORM Day 5
CC1(C)CN=C(SCn2c(-c3ccc(Cl)cc3)c(C#N)c(Br)c2C(F)(F)F)NC1 [Example 10] | 0
CCOC(=S)SCn1c(-c2ccc(Cl)c(Cl)c2)c(Br)c(C(F)(F)F)c1C(F)(F)F [Example 35] | 9 (100% kill)
CCOC(=S)SCn1c(-c2ccc(Cl)cc2)c(C#N)c(Br)c1C(F)(F)F [Example 29] | 9 (100% kill)
CN=C(NC)SCn1c(Cl)c(Cl)c(C#N)c1-c1ccc(Cl)c(Cl)c1 [Example 15] | 9 (100% kill)

Same assay, conditions: 100 ppm; rating at 3 days

SMILES | ARMYWORM Day 3
N#Cc1c(Br)c(Br)n(CSC2=NCCCN2)c1Br [Example 13] | 0
CC1(C)CN=C(SCn2c(-c3ccc(Cl)cc3)c(C#N)c(Br)c2C(F)(F)F)NC1 [Example 10] | 9 (100% kill)
CCOC(=S)SCn1c(-c2ccc(Cl)c(Cl)c2)c(Br)c(C(F)(F)F)c1C(F)(F)F [Example 35] | 9 (100% kill)
CCOC(=S)SCn1c(-c2ccc(Cl)cc2)c(C#N)c(Br)c1C(F)(F)F [Example 29] | 9 (100% kill)
CN=C(NC)SCn1c(Cl)c(Cl)c(C#N)c1-c1ccc(Cl)c(Cl)c1 [Example 15] | 9 (100% kill)

Same assay, conditions: 100 ppm; rating at 5 days

SMILES | ARMYWORM Day 5
CC1(C)CN=C(SCn2c(-c3ccc(Cl)cc3)c(C#N)c(Br)c2C(F)(F)F)NC1 [Example 10] | 9 (100% kill)
CCOC(=S)SCn1c(-c2ccc(Cl)c(Cl)c2)c(Br)c(C(F)(F)F)c1C(F)(F)F [Example 35] | 9 (100% kill)
CCOC(=S)SCn1c(-c2ccc(Cl)cc2)c(C#N)c(Br)c1C(F)(F)F [Example 29] | 9 (100% kill)
CN=C(NC)SCn1c(Cl)c(Cl)c(C#N)c1-c1ccc(Cl)c(Cl)c1 [Example 15] | 9 (100% kill)

Same assay, conditions: 1000 ppm; rating at 3 days

SMILES | ARMYWORM Day 3
N#Cc1c(Br)c(Br)n(CSC2=NCCCN2)c1Br [Example 13] | 9 (100% kill)
CC1(C)CN=C(SCn2c(-c3ccc(Cl)cc3)c(C#N)c(Br)c2C(F)(F)F)NC1 [Example 10] | 9 (100% kill)
CCOC(=S)SCn1c(-c2ccc(Cl)c(Cl)c2)c(Br)c(C(F)(F)F)c1C(F)(F)F [Example 35] | 9 (100% kill)
CCOC(=S)SCn1c(-c2ccc(Cl)cc2)c(C#N)c(Br)c1C(F)(F)F [Example 29] | 9 (100% kill)
CN=C(NC)SCn1c(Cl)c(Cl)c(C#N)c1-c1ccc(Cl)c(Cl)c1 [Example 15] | 9 (100% kill)

Same assay, conditions: 1000 ppm; rating at 5 days

SMILES | ARMYWORM Day 5
CC1(C)CN=C(SCn2c(-c3ccc(Cl)cc3)c(C#N)c(Br)c2C(F)(F)F)NC1 [Example 10] | 9 (100% kill)
CCOC(=S)SCn1c(-c2ccc(Cl)c(Cl)c2)c(Br)c(C(F)(F)F)c1C(F)(F)F [Example 35] | 9 (100% kill)
CCOC(=S)SCn1c(-c2ccc(Cl)cc2)c(C#N)c(Br)c1C(F)(F)F [Example 29] | 9 (100% kill)
CN=C(NC)SCn1c(Cl)c(Cl)c(C#N)c1-c1ccc(Cl)c(Cl)c1 [Example 15] | 9 (100% kill)

What follows are compounds tested on Spodoptera eridania, 3rd instar larvae, southern armyworm (assay: Southern armyworm systemic uptake (stem systemic) test). Details: cut stem in emulsion 3 days.
Assay type: in vivo
Design: key: 0: no effect; 10-25% kill; 26-35% kill; 36-45% kill; 46-55% kill; 56-65% kill; 66-75% kill; 76-85% kill; 86-99% kill; 9: 100% kill

SMILES | ARMYWORM Stem Sys
N#Cc1c(Br)c(Br)n(CSC2=NCCCN2)c1Br [Example 13] | 7 (76-85% kill)
CC1(C)CN=C(SCn2c(-c3ccc(Cl)cc3)c(C#N)c(Br)c2C(F)(F)F)NC1 [Example 10] | 0
CCOC(=S)SCn1c(-c2ccc(Cl)c(Cl)c2)c(Br)c(C(F)(F)F)c1C(F)(F)F [Example 35] | 0
CCOC(=S)SCn1c(-c2ccc(Cl)cc2)c(C#N)c(Br)c1C(F)(F)F [Example 29] | 0
CN=C(NC)SCn1c(Cl)c(Cl)c(C#N)c1-c1ccc(Cl)c(Cl)c1 [Example 15] | 0

Each compound was assayed on Tetranychus urticae (OP-resistant strain), 2-spotted spider mite (assay: 2-spotted spider mite test, dipped infested limabean plants). Details: 10 ppm; adult mites; rating scale 0-9.
Assay type: in vivo
Design: key: 0: no effect; 10-25% kill; 26-35% kill; 36-45% kill; 46-55% kill; 56-65% kill; 66-75% kill; 76-85% kill; 86-99% kill; 9: 100% kill
Method in brief: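 Compound dissolved at 10,000 ppm in 35% aqueous acetone, then water-diluted; limabean primary leaves carrying ~100 OP-resistant mites each are dipped 3 s and dried. Adult mortality read on one leaf after 2 days, eggs/newly emerged nymphs on another after 5 days, scored by rating scale.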

SMILES | OP-RESISTANT MITES Adult
CCOC(=S)SCn1c(-c2ccc(Cl)cc2)c(C#N)c(Br)c1C(F)(F)F [Example 29] | 9 (100% kill)

Same assay, conditions: 10 ppm; mite eggs; rating scale 0-9

SMILES | OP-RESISTANT MITES Egg
CCOC(=S)SCn1c(-c2ccc(Cl)cc2)c(C#N)c(Br)c1C(F)(F)F [Example 29] | 9 (100% kill)

Same assay, conditions: 10 ppm; mite nymphs; rating scale 0-9

SMILES | OP-RESISTANT MITES Nymph
CCOC(=S)SCn1c(-c2ccc(Cl)c(Cl)c2)c(Br)c(C(F)(F)F)c1C(F)(F)F [Example 35] | 0

Same assay, conditions: 100 ppm; adult mites; rating scale 0-9

SMILES | OP-RESISTANT MITES Adult
CCOC(=S)SCn1c(-c2ccc(Cl)cc2)c(C#N)c(Br)c1C(F)(F)F [Example 29] | 9 (100% kill)

Same assay, conditions: 100 ppm; mite eggs; rating scale 0-9

SMILES | OP-RESISTANT MITES Egg
CCOC(=S)SCn1c(-c2ccc(Cl)cc2)c(C#N)c(Br)c1C(F)(F)F [Example 29] | 9 (100% kill)

Same assay, conditions: 300 ppm; adult mites; rating scale 0-9

SMILES | OP-RESISTANT MITES Adult
N#Cc1c(Br)c(Br)n(CSC2=NCCCN2)c1Br [Example 13] | 5 (56-65% kill)
CC1(C)CN=C(SCn2c(-c3ccc(Cl)cc3)c(C#N)c(Br)c2C(F)(F)F)NC1 [Example 10] | 0
CCOC(=S)SCn1c(-c2ccc(Cl)cc2)c(C#N)c(Br)c1C(F)(F)F [Example 29] | 9 (100% kill)
CN=C(NC)SCn1c(Cl)c(Cl)c(C#N)c1-c1ccc(Cl)c(Cl)c1 [Example 15] | 0

Same assay, conditions: 300 ppm; mite eggs; rating scale 0-9

SMILES | OP-RESISTANT MITES Egg
N#Cc1c(Br)c(Br)n(CSC2=NCCCN2)c1Br [Example 13] | 0
CC1(C)CN=C(SCn2c(-c3ccc(Cl)cc3)c(C#N)c(Br)c2C(F)(F)F)NC1 [Example 10] | 0
CCOC(=S)SCn1c(-c2ccc(Cl)c(Cl)c2)c(Br)c(C(F)(F)F)c1C(F)(F)F [Example 35] | 0
CCOC(=S)SCn1c(-c2ccc(Cl)cc2)c(C#N)c(Br)c1C(F)(F)F [Example 29] | 0
CN=C(NC)SCn1c(Cl)c(Cl)c(C#N)c1-c1ccc(Cl)c(Cl)c1 [Example 15] | 0

Same assay, conditions: 300 ppm; mite nymphs; rating scale 0-9

SMILES | OP-RESISTANT MITES Nymph
N#Cc1c(Br)c(Br)n(CSC2=NCCCN2)c1Br [Example 13] | 0
CC1(C)CN=C(SCn2c(-c3ccc(Cl)cc3)c(C#N)c(Br)c2C(F)(F)F)NC1 [Example 10] | 0
CCOC(=S)SCn1c(-c2ccc(Cl)c(Cl)c2)c(Br)c(C(F)(F)F)c1C(F)(F)F [Example 35] | 0
CCOC(=S)SCn1c(-c2ccc(Cl)cc2)c(C#N)c(Br)c1C(F)(F)F [Example 29] | 0
CN=C(NC)SCn1c(Cl)c(Cl)c(C#N)c1-c1ccc(Cl)c(Cl)c1 [Example 15] | 0

What follows are compounds tested on Aphis fabae, mixed instar, bean aphid (assay: Bean aphid spray test on nasturtium). Details: 100 ppm; rating scale 0-9.
Assay type: in vivo
Design: key: 0: no effect; 10-25% kill; 26-35% kill; 36-45% kill; 46-55% kill; 56-65% kill; 66-75% kill; 76-85% kill; 86-99% kill; 9: 100% kill
Method in brief: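 Mortality rated on a scale 2 days after treatment of aphid-infested (100-200 per plant, infested a day earlier) ~5 cm nasturtiums sprayed to complete coverage. Spray solutions: 10,000 ppm compound in 35% acetone in water, with further water dilutions.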

SMILES | APHIDS
N#Cc1c(Br)c(Br)n(CSC2=NCCCN2)c1Br [Example 13] | 0
CC1(C)CN=C(SCn2c(-c3ccc(Cl)cc3)c(C#N)c(Br)c2C(F)(F)F)NC1 [Example 10] | 0
CCOC(=S)SCn1c(-c2ccc(Cl)c(Cl)c2)c(Br)c(C(F)(F)F)c1C(F)(F)F [Example 35] | 0
CCOC(=S)SCn1c(-c2ccc(Cl)cc2)c(C#N)c(Br)c1C(F)(F)F [Example 29] | 0
CN=C(NC)SCn1c(Cl)c(Cl)c(C#N)c1-c1ccc(Cl)c(Cl)c1 [Example 15] | 0

What follows are compounds tested on Empoasca abrupta, adult, western potato leafhopper (assay: Western potato leafhopper contact test, dipped limabean leaf). Details: 10 ppm; contact; rating scale 0-9.
Assay type: in vivo
Design: key: 0: no effect; 10-25% kill; 26-35% kill; 36-45% kill; 46-55% kill; 56-65% kill; 66-75% kill; 76-85% kill; 86-99% kill; 9: 100% kill
Method in brief: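 Sieva limabean leaf dipped 3 s in compound solution (diluted in water from 10,000 ppm stock in 35% acetone), dried, and infested with about 10 adult leafhoppers on moist filter paper. Mortality counted after 2 days and scored on a rating scale.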

SMILES | LEAFHOPPER Contact
CC1(C)CN=C(SCn2c(-c3ccc(Cl)cc3)c(C#N)c(Br)c2C(F)(F)F)NC1 [Example 10] | 0
CCOC(=S)SCn1c(-c2ccc(Cl)c(Cl)c2)c(Br)c(C(F)(F)F)c1C(F)(F)F [Example 35] | 9 (100% kill)
CCOC(=S)SCn1c(-c2ccc(Cl)cc2)c(C#N)c(Br)c1C(F)(F)F [Example 29] | 9 (100% kill)
CN=C(NC)SCn1c(Cl)c(Cl)c(C#N)c1-c1ccc(Cl)c(Cl)c1 [Example 15] | 0

Same assay, conditions: 100 ppm; contact; rating scale 0-9

SMILES | LEAFHOPPER Contact
N#Cc1c(Br)c(Br)n(CSC2=NCCCN2)c1Br [Example 13] | 0
CC1(C)CN=C(SCn2c(-c3ccc(Cl)cc3)c(C#N)c(Br)c2C(F)(F)F)NC1 [Example 10] | 7 (76-85% kill)
CCOC(=S)SCn1c(-c2ccc(Cl)c(Cl)c2)c(Br)c(C(F)(F)F)c1C(F)(F)F [Example 35] | 9 (100% kill)
CCOC(=S)SCn1c(-c2ccc(Cl)cc2)c(C#N)c(Br)c1C(F)(F)F [Example 29] | 9 (100% kill)
CN=C(NC)SCn1c(Cl)c(Cl)c(C#N)c1-c1ccc(Cl)c(Cl)c1 [Example 15] | 6 (66-75% kill)

The compounds below were run on Empoasca abrupta, adult, western potato leafhopper (assay: Western potato leafhopper systemic uptake test). Details: 100 ppm; systemic uptake; rating scale 0-9.
Assay type: in vivo
Design: key: 0: no effect; 10-25% kill; 26-35% kill; 36-45% kill; 46-55% kill; 56-65% kill; 66-75% kill; 76-85% kill; 86-99% kill; 9: 100% kill
Method in brief: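 Leafhopper mortality, rated on a scale, scored 2 days after about 10 adults were confined with a leaf in a moist dish. The leaf came from a cut lima bean stem that had taken up the compound emulsion (100 ppm and 10-fold dilutions) over 3 days at 27 °C.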

SMILES | LEAFHOPPER Systemic
N#Cc1c(Br)c(Br)n(CSC2=NCCCN2)c1Br [Example 13] | 0
CC1(C)CN=C(SCn2c(-c3ccc(Cl)cc3)c(C#N)c(Br)c2C(F)(F)F)NC1 [Example 10] | 6 (66-75% kill)
CCOC(=S)SCn1c(-c2ccc(Cl)c(Cl)c2)c(Br)c(C(F)(F)F)c1C(F)(F)F [Example 35] | 0
CCOC(=S)SCn1c(-c2ccc(Cl)cc2)c(C#N)c(Br)c1C(F)(F)F [Example 29] | 0
CN=C(NC)SCn1c(Cl)c(Cl)c(C#N)c1-c1ccc(Cl)c(Cl)c1 [Example 15] | 0
